The numbers were not newly measured in patent US10149821B2, “Orosoluble and/or effervescent compositions containing at least a salt of S-adenosyl methionine (SAMe)” (priority 2009, dated 2018), which cites them from elsewhere.

The conditions of series [1]: oral intake, SAMe radiolabeled on the carbon of the methyl group.
Assay in series [2]: not given
The source holds these as a separate data set.

For series [3] the following is noted: temperatures above 0° C.

SMILES strings stand for the structures.

As for `C[S+](CC[C@H](N)C(=O)O)C[C@H]1O[C@@H](n2cnc3c(N)ncnc32)[C@H](O)[C@@H]1O` (some centres unmarked) [SAMe, S-adenosyl methionine], the “half-life in the liver” value was “about 5 minutes”. Besides, in series [1], the “hepatic metabolism, % of the administered radioactivity” value is “about 60%”. The “plasma levels of the non-modified molecule, % of the administered dose” value in series [2] (oral intake, swallowable gastro-protected tablets) is listed as 5-10%. For the same compound, in series [2] (parenteral administration (endovenous or intramuscular)), the “plasma bioavailability, % of the administered dose” value is given as 90-100%. Besides, in series [3], the stability result is “very unstable”.
